Assay results reported in patent publication US6897237B2, “MMP-12 inhibitors” (Shionogi & Co. Ltd., priority 2000, dated 2005).

What was measured:
Type in all cases: biochemical
Conditions in all cases: substrate MOCAc-Pro-Leu-Gly-Leu-A2Pr(DNP)-Ala-Arg-NH2
MMP-1 = target: T1, MMP-1 (Homo sapiens, UniProt P03956); assay: Assay for inhibitory activities on MMPs (fluorogenic peptide substrate): MMP-1
T1 construct: purchased Yagai
T1 sequence (P03956 100-469): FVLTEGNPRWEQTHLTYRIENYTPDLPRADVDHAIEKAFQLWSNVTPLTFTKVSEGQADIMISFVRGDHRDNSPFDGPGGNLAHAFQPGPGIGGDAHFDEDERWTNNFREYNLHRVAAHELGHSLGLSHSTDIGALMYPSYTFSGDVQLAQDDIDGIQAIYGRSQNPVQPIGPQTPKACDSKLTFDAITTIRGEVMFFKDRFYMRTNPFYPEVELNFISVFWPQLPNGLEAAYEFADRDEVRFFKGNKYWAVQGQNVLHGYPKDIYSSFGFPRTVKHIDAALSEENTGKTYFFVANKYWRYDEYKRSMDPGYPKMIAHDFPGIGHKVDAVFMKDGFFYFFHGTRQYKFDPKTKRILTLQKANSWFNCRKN
Method: MMP-1 was purchased from Yagai.
(§1) The enzymatic activity on MMPs was analyzed by the method described in “C. Graham Knight, Frances Willenbrock and Gillian Murphy: A novel coumarin-labelled peptide for sensitive continuous assays of the matrix metalloproteinases: FEBS LETT., 296, (1992), 263-266”. The substrate: MOCAc-Pro-Leu-Gly-Leu-A2Pr(DNP)-Ala-Arg-NH2 was purchased from Peptide Institute, Inc., Osaka, Japan. The measurement of the inhibitory activities (IC50) was carried out by the following four methods;
(§2) (A) Reaction with substrate, enzyme (MMPs) and inhibitor
(§3) (B) Reaction with substrate and inhibitor, without enzyme
(§4) (C) Reaction with substrate and enzyme (MMPs), without inhibitor
(§5) (D) Reaction with substrate only
(§6) IC50 values were calculated by using the following formula and each fluorescence values of above four methods (A to D).
(§7) % inhibition={1−(A−B)/(C−D)}×100
(§8) IC50 means the concentration required to inhibit 50% of the enzyme activity.

MMP-2 = target: T2, MMP-2 (Homo sapiens, UniProt P08253); assay: Assay for inhibitory activities on MMPs (fluorogenic peptide substrate): MMP-2
T2 construct: purchased Calbiochem-Novabiochem International, Inc
T2 sequence (P08253 110-660): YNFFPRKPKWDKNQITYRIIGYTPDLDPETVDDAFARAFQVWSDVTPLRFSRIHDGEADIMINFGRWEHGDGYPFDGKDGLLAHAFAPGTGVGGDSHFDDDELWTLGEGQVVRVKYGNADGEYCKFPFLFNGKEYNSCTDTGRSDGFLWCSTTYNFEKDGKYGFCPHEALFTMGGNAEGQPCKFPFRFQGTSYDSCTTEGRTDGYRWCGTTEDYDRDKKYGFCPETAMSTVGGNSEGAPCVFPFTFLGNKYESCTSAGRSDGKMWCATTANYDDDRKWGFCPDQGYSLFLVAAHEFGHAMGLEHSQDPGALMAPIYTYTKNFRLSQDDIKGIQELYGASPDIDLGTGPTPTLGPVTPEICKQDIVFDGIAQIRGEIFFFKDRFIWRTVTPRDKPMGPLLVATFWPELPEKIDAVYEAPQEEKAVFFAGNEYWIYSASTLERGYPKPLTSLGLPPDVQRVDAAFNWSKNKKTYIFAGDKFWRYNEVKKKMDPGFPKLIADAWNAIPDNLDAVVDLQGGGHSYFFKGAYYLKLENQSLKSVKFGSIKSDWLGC
Method: MMP-2 was purchased from Calbiochem-Novabiochem International, Inc.
as §1, §2, §3, §4, §5, §6, §7, §8

MMP-8 catalytic domain = target: T3, MMP-8 catalytic domain (Homo sapiens, UniProt P22894); assay: Assay for inhibitory activities on MMPs (fluorogenic peptide substrate): MMP-8
T3 construct: catalytic domain (^99Phe˜^262Gly); His-tag; enterokinase digestion-site; made in house; host or cells: Escherichia coli
Excerpt: In regard to MMP-8, catalytic domain (^99Phe˜^262Gly) was amplified with PCR using commercial available Human Bone Marrow cDNA. This was cloned in Escherichia. coli expression vector pTrc99AHE inserted with His-tag sequence and enterokinase digestion-site, induced and expressed by IPTG (Isopropyl-β-D-thiogalactopyranoside) and expressed in a insoluble fraction (Than F. Ho, M. Walid Qoronfleh, Robert C. Wahl, Trica A. Pulvino, Karen J. Vavra, Joe Falvo, Tracey M. Banks, Patricia G. Brake and Richard B. Ciccarelli: Gene expression, purification and characterization of recombinant human neutrophil collagenase. Gene 146, (1994) 297-301, Prepared by the a improved method of this material). Isolation of MMP-8 from insoluble fraction was carried out by dissolving in modifier (6M urea) by a usual method and purification with metal chelate chromatography. And then removing modifier (6M urea) with dialysis and refolding of the enzyme spontaneously gave activated MMP-8.
as §1, §2, §3, §4, §5, §6, §7, §8

MMP-9 = target: T4, MMP-9 (Homo sapiens, UniProt P14780); assay: Assay for inhibitory activities on MMPs (fluorogenic peptide substrate): MMP-9
T4 construct: endogenous in cells; host or cells: HT1080 human fibrosarcoma cells, TPA-stimulated; purified in house from conditioned medium
Excerpt: MMP-9 was isolated and purified by using a combination of procedures described in previous reports as follows. Yasunori Okada, Yukio Gonoji, Katsumi Naka, Katsuro Tomita, Isao Nakanishi, Kazushi Iwata, Kyoko Yamashita, and Taro Hayakawa: Matrix metalloproteinase 9 (92-kDa gelatinase/type IV collagenase) from HT1080 human fibrosarcoma cells. Purification and activation of the precursor and enzymic properties. J. Biol. Chem., 267 (1.992) 21712-21719. Yasunori Okada, Tatsuhisa Morodomi, Jan J, Enghild, Ko Suzuki, Atsushi Yasui, Isao Nakanishi, Guy Salvesen and Hideaki Nagase: Matrix metalloproteinase 2 from human rheumatoid synovial fibroblasts. Purification and activation of the precursor and enzymic properties. Eur. J. Biochem. 194 (1990) 721-730. Robin V Ward, Rosalind M Hembry, John J Reynolds and Gillian Murphy: The purification of tissue inhibitor of metalloproteinase-2 from its 72 kDa progelatinase complex. Biochem. J. 278 (1991) 179-187.
Briefly, human fibrosarcoma ATCC HT1080 cell line was cultured to confluent in Dulbecco's Modified Medium (DMEM) containing 10% fetal-calf serum at 37° C. for 48 hours. Subsequently, the medium of confluent culture was changed to serum-free DMEM medium. To obtain MMP-9, Phorbol-12-myristate-13-acetate (TPA) must be added to this serum-free DMEM medium at a concentration of 50 ng/ml. The TPA treated medium was centrifuged at 3000 rpm for 15 min and the supernatant was concentrated to 450 ml by a Toyo-Roshi UP-20 apparatus with an ultrafiltration membrane. Then, proMMP-9 in this concentrated solution was purified by using columns of Gelatin-Sepharose and Concanavalin A-Sepharose. The pool containing proMMP-9 was dialyzed, concentrated (Toyo-Roshi UP-20) and applied to columns of Sephacryl S-200 and Green A matrix for the separation from TIMPs. The obtained proMMP-9 fraction was activated by TPCK-Trypsin (final conc. […] reaction mix.).
as §1, §2, §3, §4, §5, §6, §7, §8

MMP-12 catalytic domain = target: T5, MMP-12 catalytic domain (Homo sapiens, UniProt P39900); assay: Assay for inhibitory activities on MMPs (fluorogenic peptide substrate): MMP-12
T5 construct: catalytic domain(^100Phe˜^263Gly); His-tag; enterokinase digestion-site; made in house; host or cells: Escherichia coli
Method: (§9) In regard to MMP-12, catalytic domain(^100Phe˜^263Gly) was amplified with RT-PCR from Human Placenta Total RNA. This was cloned in Escherichia coli expression vector pTrc99AHE inserted with His-tag sequence and enterokinase digestion-site, induced and expressed by IPTG (Isopropyl-β-D-thiogalactopyranoside) and expressed in a insoluble fraction. Isolation of MMP-12 from a insoluble fraction was carried out by dissolving in modifier (6M urea) by a usual method and purification with metal chelate chromatography (Ni Chelateing Sepharose). And then removing modifier (6M urea) with dialysis and refolding of the enzyme spontaneously gave activated MMP-12.
as §1, §2, §3, §4, §5, §6, §7, §8

MMP-13 catalytic domain = target: T6, MMP-13 catalytic domain (Homo sapiens, UniProt P45452); assay: Assay for inhibitory activities on MMPs (fluorogenic peptide substrate): MMP-13
T6 construct: catalytic domain (^104Tyr˜^267Gly); His-tag; enterokinase digestion-site; made in house; host or cells: Escherichia coli
Method: as §9, with “MMP-13, mRNA was prepared from carcinoma cell SW1353 derived from human cartilage stimulate by IL-1, TNF and” for “MMP-12,”, “domain (^104Tyr˜^267Gly)” for “domain(^100Phe˜^263Gly)”, “RT-PCR.” for “RT-PCR from Human Placenta Total RNA.”, “MMP-1.3” for “MMP-12”, “dialyze” for “dialysis”, “MMP-13.” for “MMP-12.”
as §1, §2, §3, §4, §5, §6, §7, §8

T3 sequence (P22894 99-262): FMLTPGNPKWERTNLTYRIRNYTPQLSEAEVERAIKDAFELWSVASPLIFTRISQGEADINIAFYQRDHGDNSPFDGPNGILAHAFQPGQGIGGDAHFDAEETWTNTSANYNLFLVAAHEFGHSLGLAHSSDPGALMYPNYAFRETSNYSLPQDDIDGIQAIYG
T5 sequence (P39900 100-263): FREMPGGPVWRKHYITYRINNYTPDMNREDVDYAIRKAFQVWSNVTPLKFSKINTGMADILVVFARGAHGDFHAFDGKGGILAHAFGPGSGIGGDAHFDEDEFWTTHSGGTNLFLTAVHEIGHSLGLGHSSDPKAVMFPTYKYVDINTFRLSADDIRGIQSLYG
T4 sequence (P14780 107-707 limits assumed): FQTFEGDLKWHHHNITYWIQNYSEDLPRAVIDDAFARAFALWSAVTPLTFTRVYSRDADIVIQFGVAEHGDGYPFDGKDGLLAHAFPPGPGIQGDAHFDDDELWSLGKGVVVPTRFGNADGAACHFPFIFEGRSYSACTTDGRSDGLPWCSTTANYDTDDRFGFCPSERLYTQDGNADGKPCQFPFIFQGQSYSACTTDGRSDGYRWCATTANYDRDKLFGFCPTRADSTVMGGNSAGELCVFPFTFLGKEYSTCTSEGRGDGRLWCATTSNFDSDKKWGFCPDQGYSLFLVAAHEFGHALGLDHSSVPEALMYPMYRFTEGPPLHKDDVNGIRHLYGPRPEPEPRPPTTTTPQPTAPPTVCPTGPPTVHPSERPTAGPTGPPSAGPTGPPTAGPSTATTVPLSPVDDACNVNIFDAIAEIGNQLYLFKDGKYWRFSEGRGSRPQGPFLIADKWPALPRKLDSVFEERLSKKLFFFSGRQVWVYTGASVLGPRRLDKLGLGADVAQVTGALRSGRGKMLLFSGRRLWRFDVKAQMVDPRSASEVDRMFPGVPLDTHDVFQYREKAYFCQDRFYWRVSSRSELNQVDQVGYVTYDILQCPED

IC50 (MMP-1) | IC50 (MMP-2) | IC50 (MMP-8 catalytic domain) | IC50 (MMP-9) | IC50 (MMP-12 catalytic domain) | IC50 (MMP-13 catalytic domain) | Structure (SMILES)
> 10 µM | 0.14 µM | > 10 µM | > 10 µM | 0.055 µM | 0.45 µM | O=C(O)[C@@H](Cc1ccccc1)NS(=O)(=O)c1ccc(-n2nnc(-c3ccc4ccccc4c3)n2)cc1 [Compound C-1]
> 10 µM | 1.86 µM | 2.89 µM | 4.9 µM | 0.11 µM | 6.14 µM | CSCC[C@H](NS(=O)(=O)c1ccc(C#Cc2ccc3ccccc3c2)s1)C(=O)O [Compound B-11]
> 10 µM | 0.35 µM | 1 µM | 0.87 µM | 0.0088 µM | 0.95 µM | CSCC[C@@H](NS(=O)(=O)c1ccc(C#Cc2ccc3ccccc3c2)s1)C(=O)O [Compound B-10]
> 10 µM | 0.11 µM | 1.06 µM | 0.33 µM | 0.014 µM | 0.34 µM | CC(C)[C@@H](NS(=O)(=O)c1ccc(C#Cc2ccc3ccccc3c2)cc1)C(=O)O [Compound A-5]
> 10 µM | – | 1.4 µM | 0.75 µM | 0.016 µM | > 10 µM | O=C(O)[C@@H](Cc1c[nH]c2ccccc12)NS(=O)(=O)c1ccc(C#Cc2ccc3ccccc3c2)s1 [Compound B-3]
> 10 µM | 1.27 µM | > 10 µM | 4.23 µM | 0.26 µM | 7.18 µM | O=C(O)CNS(=O)(=O)c1ccc(C#Cc2ccc3ccccc3c2)s1 [Compound B-9]
> 10 µM | 0.37 µM | 0.58 µM | 1.27 µM | 0.0059 µM | 0.46 µM | CC(C)C[C@H](NS(=O)(=O)c1ccc(C#Cc2ccc3ccccc3c2)cc1)C(=O)O [Compound A-11]
> 10 µM | > 10 µM | > 10 µM | > 10 µM | 0.24 µM | > 10 µM | O=C(O)[C@H](Cc1ccccc1)NS(=O)(=O)c1ccc(C#Cc2ccc3ccccc3c2)s1 [Compound B-2]
> 10 µM | – | – | – | – | – | CC(C)[C@H](NS(=O)(=O)c1ccc(C#Cc2ccc3ccccc3c2)cc1)C(=O)O [Compound A-6]
> 10 µM | > 10 µM | > 10 µM | > 10 µM | 0.82 µM | > 10 µM | O=C(O)[C@@H](Cc1ccccc1)NS(=O)(=O)c1ccc(C#Cc2cccc3ccccc23)s1 [Compound B-17]
> 10 µM | 0.46 µM | > 10 µM | 0.9 µM | 0.032 µM | 0.89 µM | O=C(O)[C@H](Cc1c[nH]c2ccccc12)NS(=O)(=O)c1ccc(C#Cc2ccc3ccccc3c2)cc1 [Compound A-15]
> 10 µM | 0.24 µM | 0.54 µM | 0.53 µM | 0.011 µM | 0.64 µM | CC(C)[C@@H](NS(=O)(=O)c1ccc(C#Cc2ccc3ccccc3c2)s1)C(=O)O [Compound B-4]
> 10 µM | 1.12 µM | 2.65 µM | 2.11 µM | 0.048 µM | 2.3 µM | O=C(O)[C@H](NS(=O)(=O)c1ccc(C#Cc2ccc3ccccc3c2)s1)c1ccc(O)cc1 [Compound B-8]
> 10 µM | 0.56 µM | 4.51 µM | 6.56 µM | 0.15 µM | 2.33 µM | O=C(Nc1ccc(S(=O)(=O)N[C@@H](Cc2ccccc2)C(=O)O)cc1)c1ccc2ccccc2c1 [Compound D-2]
> 10 µM | > 10 µM | > 10 µM | > 10 µM | 0.021 µM | > 10 µM | O=C(O)[C@H](Cc1ccccc1)NS(=O)(=O)c1ccc(C#Cc2ccc3ccccc3c2)cc1 [Compound A-3]
> 10 µM | 2.23 µM | 2.34 µM | 3.27 µM | 0.082 µM | 6.9 µM | CC(C)[C@H](NS(=O)(=O)c1ccc(C#Cc2ccc3ccccc3c2)s1)C(=O)O [Compound B-5]
> 10 µM | 0.82 µM | > 10 µM | > 10 µM | 0.042 µM | > 10 µM | O=C(O)[C@@H](Cc1ccccc1)NS(=O)(=O)c1ccc(C#Cc2ccc3ccccc3c2)s1 [Compound B-1]
> 10 µM | 2.03 µM | 7.79 µM | 6.31 µM | 0.16 µM | > 10 µM | C[C@H](NS(=O)(=O)c1ccc(C#Cc2ccc3ccccc3c2)s1)C(=O)O [Compound B-7]
